{"source": "patent US20250270251A1", "about": "“PROCESS FOR THE PREPARATION OF […] HAVING A DEFINITE PARTICLE SIZE DISTRIBUTION AND A IRREGULAR HEXAGON PLATES CRYSTAL HABIT” (F.I.S. - FABBRICA ITALIANA SINTETICI S.P.A., priority 2020, published 2025)", "type_in_all_cases": "physicochemical", "key": {"[1]": {"test": "DSC comparative study of crystal habits", "conditions": "irregular hexagon plates versus non-irregular hexagon plates crystals; from DSC onset and peak", "protocol": "DSC analysis was recorded with a Mettler DSC822e. A sample of compound was charged into a 40 μL aluminium crucible with a pinhole lid and was heated, under nitrogen (50 mL/min), at 10° C./min from 30 to 300° C.\nDSC testing was performed in a sealed medium pressure stainless steel crucible. All the testing was performed by heating the sample from 30° C. at a rate of 10° C./minute up to a maximum temperature of 300° C."}, "[2]": {"test": "Microscopy analysis (SEM) for identification of crystal habit and size", "conditions": "crystallized with a C2-C5 alkyl alcohol, examples 2 to 9", "protocol": "The mean square weight means is determined by chord-length distribution analysis of Trenbolone Acetate of formula (I), in particular, was through by scanning electron microscopy (SEM).\nMicroscopy analysis: the solid of Trenbolone Acetate (I) was analysed by microscopy for identification of crystal habits.\nMicroscope was recorded with a Zeiss Evo MA10 scanning electron microscope. A sample of powder has been gold spattered and observed by SEM at different magnification, micrographs have been collected at same conditions and magnification (20 kV, HDBSD, Variable Pressure). All the samples have been observed after same treatment and same time after preparation."}, "[3]": {"test": "Particle size distribution (PSD) with a Malvern Mastersizer 3000", "protocol": "Particle size distribution (PSD): In particular, particle size distribution was determined with a Malvern Mastersizer 3000, and the other parameters used are reported in table below: […]"}, "[4]": {"conditions": "Example 12, crystallization from isopropanol, seed D10 4-12, D50 12-29, D90 <76 μm"}, "[5]": {"conditions": "Example 13, recrystallization from IPA, seed D10 2-5, D50 10-20, D90 25-51 μm"}}}
{"smiles": "CC(=O)O[C@H]1CC[C@H]2[C@@H]3CCC4=CC(=O)CCC4=C3C=C[C@]12C", "note": "[Compound (I), 17beta-acetoxy-estra-4,9,11-triene-3-one]", "values": [{"measurement": "thermodynamic stability of the crystal habit", "setting": "[1]", "value": "thermodynamically more stable"}, {"measurement": "size range of thin irregular hexagon plates", "setting": "[2]", "value": "20-200 micron"}, {"measurement": "PSD D50", "setting": "[3]; Example 2, crystallization from isopropanol, seeded at 20-25 °C", "value": "67-130 μm"}, {"measurement": "PSD D10", "setting": "[3]; [4]", "value": "15-40 μm"}, {"measurement": "PSD D50", "setting": "[3]; [4]", "value": "67-130 μm"}, {"measurement": "PSD D90", "setting": "[3]; [4]", "value": 350, "unit": "μm"}, {"measurement": "PSD D10", "setting": "[3]; [5]", "value": "15-40 μm"}, {"measurement": "PSD D50", "setting": "[3]; [5]", "value": "67-130 μm"}, {"measurement": "PSD D90", "setting": "[3]; [5]", "value": 300, "unit": "μm"}]}
